According to patent US20050085539A1, “Method of reducing toxicity of retinoids” (priority 2003, published 2005):

How the values were obtained:
Assay type in all cases: in vivo, rat
[1] = system: vitamin A-deficient rats; test: Growth of vitamin A-deficient rats given the compounds orally in Wesson oil; conditions: for growth (weight change) of vitamin A-deficient rats: 83 pmoles/day oral in Wesson oil; for growth (weight change) of vitamin A-deficient rats / growth response of vitamin A-deficient rats: 5-day period; for activity relative to atRA in supporting growth of vitamin A-deficient rats: estimate from FIG. 4, 83 pmole/day, 5 days; for growth response of vitamin A-deficient rats: 166 pmoles/day oral in Wesson oil
Source text: The first test was to determine if the esterified compounds when given orally could restore normal growth of vitamin A-deficient rats. For this study, Sprague-Dawley, weanling rats were obtained from Harlan (Indianapolis, Ind.). They were fed the purified vitamin A-deficient diet previously described (Suda et al., 1970, J. Nutr. 100:1049-1052) supplemented with vitamins D, E and K (White et al., 1998, Proc. Natl. Acad. Sci. USA 95:13459-13464). When the animals stopped growing and began to lose weight, they were administered the indicated doses per day dissolved in Wesson oil. Controls were given the Wesson oil alone (vehicle group). The weight change over the 5-day study period was analyzed by ANOVA, followed by a matrix of pairwise comparison probabilities using four post-hoc tests when the overall P value was less then 0.05. The post-hoc comparison tests included: Turkey HSD multiple comparisons, Sheffe test, Fisher's least-significant-difference test and the Bonferroni adjustment test.
Weanling male rats were obtained from the Harlan Company and were housed individually in hanging wire cages and fed the vitamin A-deficient diet described previously (Suda et al., 1970, J. Nutr. 100:1049-1052). At approximately 70 days of age, the animals began to show a leveling off of growth and began to show weight loss. At this time, they were used for the following studies: They were given either 0.1 ml of Wesson oil (vehicle) or the indicated dose of atRA dissolved in the vehicle or one of the derivatives at the indicated dose dissolved in the vehicle. Body weights were recorded daily and plotted as cumulative weight gain or loss over the study period as indicated on the graphs. A daily dose of 83 pmoles (25 μg/day) of atRA is near the minimum amount needed to produce normal growth in […] rats as compared to the vehicle controls that continue to lose weight (FIG. 1). […] When the dose was increased to 50 μg/day of atRA or 59.5 μg/day of the t-butyl derivative, as expected, the growth response was identical.

[2] = system: vitamin A-deficient rats; test: as above; conditions: daily oral dose (25 μg/day)
[3] = system: normal male rats; test: Acute toxicity of atRA versus t-butyl-RA in normal male rats
Experimental: Two independent toxicity studies were carried out with the t-butyl-RA derivative. […] However, the difference in testes weights between the atRA and t-butyl-RA groups was not statistically significant due to rather large biological variability.
We next examined the actute toxicity of the t-butyl derivative as compared to the atRA derivative in two independent trails. In these experiments, normal male rats weighing approximately 250-300 grams were used. They were individually housed in cages and given Purina lab chow as well as water ad libitum. […] This is an extremely large dose, and represents at least 3,600 times the amount of the t-butyl derivative needed to support a physiological growth response in vitamin A-deficient rats. […] Another indication of toxicity is testes weight as illustrated in FIG. 7.

[4] = 1 mmole/kg/day for 5 days, second study (FIG. 6)

SMILES | growth (weight change) of vitamin A-deficient rats [1] | daily dose near the minimum amount needed to produce normal growth [2] | activity relative to atRA in supporting growth of vitamin A-deficient rats [1] | growth response of vitamin A-deficient rats [1] | growth response of vitamin A-deficient rats ([1]; listed as t-butyl derivative) | apparent toxicity / outward symptoms [3, 4] | body weight change [3, 4] | body weight change ([3]; 1 mmole/kg/day, 7 days, first study (FIG. 5))
CC1=C(/C=C/C(C)=C/C=C/C(C)=C/C(=O)O)C(C)(C)CCC1 [atRA, all-trans-retinoic acid, reference compound] | superior to that of the cholesterol ester-fed group | ~83 nmol | – | – | – | – | – | –
CC1=C(/C=C/C(C)=C/C=C/C(C)=C/C(=O)O[C@H]2CC[C@@]3(C)C(=CCC4C3CC[C@@]3(C)C4CC[C@@H]3[C@H](C)CCCC(C)C)C2)C(C)(C)CCC1 (stereo partly drawn) [cholesterol ester, all-trans-retinoic acid cholesterol ester] | significantly enhanced growth compared to vehicle control animals | – | one-third | – | – | – | – | –
CC1=C(/C=C/C(C)=C/C=C/C(C)=C/C(=O)OC(C)(C)C)C(C)(C)CCC1 [t-butyl-RA, all-trans-retinoic acid tert-butyl ester] | did not differ significantly from that of the group fed an equal molar amount of atRA | – | equal to atRA in potency and efficacy | equivalent | identical | no apparent toxicity | equal body weight accumulation | enabled continued growth
